{"source": "patent US11807646B2", "about": "“4-hydroxypiperidine derivatives and their use as inhibitors of ubiquitin specific protease 19 (USP19)” (ALMAC DISCOVERY LIMITED, priority 2018, dated 2023)"}
{"molecular_target": "USP19 (Homo sapiens (Human), UniProt O94966)", "sequence (O94966 whole entry)": "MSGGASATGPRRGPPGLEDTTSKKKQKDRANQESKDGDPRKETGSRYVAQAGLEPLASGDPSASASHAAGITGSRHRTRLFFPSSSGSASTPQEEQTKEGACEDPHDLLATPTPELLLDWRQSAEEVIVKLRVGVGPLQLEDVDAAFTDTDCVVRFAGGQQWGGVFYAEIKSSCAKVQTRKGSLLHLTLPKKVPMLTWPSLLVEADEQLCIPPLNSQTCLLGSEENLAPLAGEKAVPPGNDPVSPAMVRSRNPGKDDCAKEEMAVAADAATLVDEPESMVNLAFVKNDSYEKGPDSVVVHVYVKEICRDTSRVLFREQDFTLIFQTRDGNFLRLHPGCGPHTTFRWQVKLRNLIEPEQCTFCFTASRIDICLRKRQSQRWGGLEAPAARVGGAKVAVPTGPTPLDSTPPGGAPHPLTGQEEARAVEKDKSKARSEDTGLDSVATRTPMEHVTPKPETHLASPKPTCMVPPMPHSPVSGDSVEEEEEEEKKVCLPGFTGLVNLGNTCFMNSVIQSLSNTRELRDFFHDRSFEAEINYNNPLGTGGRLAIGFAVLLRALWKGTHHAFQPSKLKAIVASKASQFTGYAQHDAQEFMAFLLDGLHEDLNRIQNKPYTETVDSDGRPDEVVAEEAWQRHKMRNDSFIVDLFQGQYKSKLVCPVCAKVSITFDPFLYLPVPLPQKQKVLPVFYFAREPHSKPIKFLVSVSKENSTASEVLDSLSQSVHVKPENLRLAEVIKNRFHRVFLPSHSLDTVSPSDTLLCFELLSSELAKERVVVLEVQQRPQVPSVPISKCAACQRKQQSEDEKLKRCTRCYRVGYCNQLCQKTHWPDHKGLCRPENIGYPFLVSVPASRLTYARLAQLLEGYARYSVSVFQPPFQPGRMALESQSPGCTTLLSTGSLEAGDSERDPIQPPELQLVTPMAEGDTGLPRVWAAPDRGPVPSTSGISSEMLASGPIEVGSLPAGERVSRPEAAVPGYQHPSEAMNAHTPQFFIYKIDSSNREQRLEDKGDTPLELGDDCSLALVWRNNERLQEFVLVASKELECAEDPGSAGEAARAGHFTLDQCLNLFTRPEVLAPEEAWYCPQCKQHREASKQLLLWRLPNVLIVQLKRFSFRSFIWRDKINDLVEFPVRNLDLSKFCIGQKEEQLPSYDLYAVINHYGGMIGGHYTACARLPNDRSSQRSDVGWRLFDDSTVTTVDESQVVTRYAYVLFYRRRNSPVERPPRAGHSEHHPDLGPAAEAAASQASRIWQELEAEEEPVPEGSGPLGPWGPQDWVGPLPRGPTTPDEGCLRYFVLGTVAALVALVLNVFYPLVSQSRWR", "test": "USP19 fluorescence polarization (FP) homogeneous assay with Ubiquitin-Lys-TAMRA substrate", "format": "biochemical", "details": "full-length USP19 2.5 nM, Ub substrate 500 nM, 30 min pre-incubation at rt; average of at least two duplicate experiments", "experimental": "Unless otherwise stated, all other reagents were purchased from Sigma. Enzymatic reactions were conducted in black flat bottom polystyrene 384-well plates (Nunc) and 30 μL total volume. […] Inhibitors were stored as 10 mM DMSO stocks in an inert environment (low humidity, dark, low oxygen, room temperature) using the Storage Pod System and serial dilutions were prepared in buffer just prior to the assay (from 200 μM to 2 pM, 8-18 data point curve). Following incubation at rt for 30 min, the enzymatic reactions were initiated by dispensing the Ub substrate (500 nM, 10 μL). FP was measured every 15 min over a period of 90 min (within the linear range of the assay) using a Synergy 4 plate reader (BioTek) exciting at 530 nm and measuring the amount of parallel and perpendicular light at 575 nm. The FP signal was subsequently normalized to the no compound control.", "units": {"IC50": "µM"}}
{"smiles": "C[C@H](CC1CCCCC1)C(=O)N1CC[C@](O)(Cn2cc(N=S(C)(C)=O)c(-c3ccccc3F)cc2=O)C(C)(C)C1", "note": "[Example 65, 1-(((R)-1-((R)-3-Cyclohexyl-2-methylpropanoyl)-4-hydroxy-3,3-dimethylpiperidin-4-yl)methyl)-5-((dimethyl(oxo)-λ^6-sulfaneylidene)amino)-4-(2-fluorophenyl)pyridin-2(1H)-one]", "IC50": "50 to 250"}
{"smiles": "O=C1COCCN1CC1(O)CCN(C(=O)N2CCOC[C@H]2c2ccccc2)CC12CCCC2", "note": "(stereo partly drawn) [Example 117, 4-((10-Hydroxy-7-((R)-3-phenylmorpholine-4-carbonyl)-7-azaspiro[4.5]decan-10-yl)methyl)morpholin-3-one]", "IC50": "0.5 to 5"}
{"smiles": "C[C@H](CC1CCCCC1)C(=O)N1CC[C@@](O)(Cn2cc(N=S(C)(C)=O)c(-c3ccccc3F)cc2=O)C(C)(C)C1", "note": "[Example 66, 1-(((S)-1-((R)-3-Cyclohexyl-2-methylpropanoyl)-4-hydroxy-3,3-dimethylpiperidin-4-yl)methyl)-5-((dimethyl(oxo)-λ^6-sulfaneylidene)amino)-4-(2-fluorophenyl)pyridin-2(1H)-one]", "IC50": "0.5 to 5"}
{"smiles": "C[C@H](CC(F)(F)F)C(=O)N1CCC(O)(Cn2ccc3ccc(F)cc3c2=O)C2(CCCC2)C1", "note": "(stereo partly drawn) [Example 135, 7-Fluoro-2-((10-hydroxy-7-((R)-4,4,4-trifluoro-2-methylbutanoyl)-7-azaspiro[4.5]decan-10-yl)methyl)isoquinolin-1(2H)-one]", "IC50": "5 to 50"}
{"smiles": "CC(CC(=O)N1CCC(O)(CN2CC(Cc3ccccc3)CC2=O)C(C)(C)C1)c1ccccc1", "note": "(centres unmarked) [Example 44, 4-Benzyl-1-((4-hydroxy-3,3-dimethyl-1-(3-phenylbutanoyl)piperidin-4-yl)methyl)pyrrolidin-2-one]", "IC50": "50 to 250"}
